Data taken from patent US12540120B2, “Herbicidal compounds” (SYNGENTA CROP PROTECTION AG, priority 2019, dated 2026).

What was measured:
Type in all cases: in vivo
[1] = tested on: Amaranthus retoflexus (AMARE); experiment: B5 Pre-Emergence Efficacy—Test 2; conditions: 250 g/ha, evaluated after 13 days
How it was run: (§1)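 Damage rated 13 days after treatment on a 1–5 scale (1=0-19%, 5=80-100%). Compounds applied at 250 g/ha as an acetone/water (50:50) spray containing 0.5% Tween 20, one day after sowing in soil, with glasshouse conditions of 24/16° C, 14 h light and 65% humidity.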

Solanum nigrum (SOLNI) [2] = experiment: B5 Pre-Emergence Efficacy—Test 2; conditions: 250 g/ha, evaluated after 13 days
How it was run: as §1

Setaria faberi (SETFA) [3] = experiment: B1 Post-Emergence Efficacy—Test 1; conditions: post-emergence application, 1000 g/ha, evaluated after 13 days
Procedure: (§2) B1 Post-Emergence Efficacy—Test 1 Seeds of a variety of test species are sown in standard soil in pots:—Solanum nigrum (SOLNI), Amaranthus retoflexus (AMARE), Setaria faberi (SETFA), Echinochloa crus-galli (ECHCG), Ipomoea hederacea (IPOHE), Lolium perenne (LOLPE). After 8 days cultivation (post-emergence) under controlled conditions in a glasshouse (at 24/16° C., day/night; 14 hours light; 65% humidity), the plants are sprayed with an aqueous spray solution derived from the formulation of the technical active ingredient in acetone/water (50:50) solution containing 0.5% Tween 20 (polyoxyethylene sorbitan monolaurate, CAS RN 9005-64-5). Compounds are applied at 1000 g/ha. The test plants are then grown in a glasshouse under controlled conditions in a glasshouse (at 24/16° C., day/night; 14 hours light; 65% humidity) and watered twice daily. After 13 days, the test is evaluated for the percentage damage caused to the plant. The biological activities are assessed on a five point scale (5=80-100%; 4=60-79%; 3=40-59%; 2=20-39%; 1=0-19%). A blank value in the table is indicative that the compound was not tested on that species.

[4] = tested on: Ipomoea hederacea (IPOHE); experiment: B1 Post-Emergence Efficacy—Test 1; conditions: post-emergence application, 1000 g/ha, evaluated after 13 days
Procedure: as §2

[5] = tested on: Amaranthus retoflexus (AMARE); experiment: B1 Post-Emergence Efficacy—Test 1; conditions: post-emergence application, 1000 g/ha, evaluated after 13 days
Procedure: as §2

Solanum nigrum (SOLNI) [6] = experiment: B1 Post-Emergence Efficacy—Test 1; conditions: post-emergence application, 1000 g/ha, evaluated after 13 days
Procedure: as §2

[7] = tested on: Echinochloa crus-galli (ECHCG); experiment: B1 Post-Emergence Efficacy—Test 1; conditions: post-emergence application, 1000 g/ha, evaluated after 13 days
Procedure: as §2

Lolium perenne (LOLPE) [8] = experiment: B1 Post-Emergence Efficacy—Test 1; conditions: post-emergence application, 1000 g/ha, evaluated after 13 days
Procedure: as §2

Setaria faberi (SETFA) [9] = experiment: B5 Pre-Emergence Efficacy—Test 2; set-up: key: 5-point scale: 5=80-100%, 4=60-79%, 3=40-59%, 2=20-39%, 1=0-19% damage; conditions: 250 g/ha, evaluated after 13 days
How it was run: as §1

[10] = tested on: Ipomoea hederacea (IPOHE); experiment: B5 Pre-Emergence Efficacy—Test 2; set-up: key: 5-point scale: 5=80-100%, 4=60-79%, 3=40-59%, 2=20-39%, 1=0-19% damage; conditions: 250 g/ha, evaluated after 13 days
How it was run: as §1

[11] = tested on: Echinochloa crus-galli (ECHCG); experiment: B5 Pre-Emergence Efficacy—Test 2; set-up: key: 5-point scale: 5=80-100%, 4=60-79%, 3=40-59%, 2=20-39%, 1=0-19% damage; conditions: 250 g/ha, evaluated after 13 days
How it was run: as §1

Lolium perenne (LOLPE) [12] = experiment: B5 Pre-Emergence Efficacy—Test 2; set-up: key: 5-point scale: 5=80-100%, 4=60-79%, 3=40-59%, 2=20-39%, 1=0-19% damage; conditions: 250 g/ha, evaluated after 13 days
How it was run: as §1

Setaria faberi (SETFA) [13] = experiment: B4 Pre-Emergence Efficacy—Test 1; conditions: pre-emergence application, 1000 g/ha, evaluated after 13 days
Procedure: (§3) B4 Pre-Emergence Efficacy—Test 1 Seeds of a variety of test species were sown in standard soil in pots: Solanum nigrum (SOLNI), Amaranthus retoflexus (AMARE), Setaria faberi (SETFA), Echinochloa crus-galli (ECHCG), Ipomoea hederacea (IPOHE), Lolium perenne (LOLPE). After cultivation for one day (pre-emergence) under controlled conditions in a glasshouse (at 24/16° C., day/night; 14 hours light; 65% humidity), the plants were sprayed with an aqueous spray solution derived from the formulation of the technical active ingredient in acetone/water (50:50) solution containing 0.5% Tween 20 (polyoxyethelyene sorbitan monolaurate, CAS RN 9005-64-5). Compounds are applied at 1000 g/ha. The test plants were then grown in a glasshouse under controlled conditions (at 24/16° C., day/night; 14 hours light; 65% humidity) and watered twice daily. After 13 days, the test is evaluated for the percentage damage caused to the plant. The biological activities are assessed on a five point scale (5=80-100%; 4=60-79%; 3=40-59%; 2=20-39%; 1=0-19%). A blank value in the table is indicative that the compound was not tested on that species.

[14] = tested on: Ipomoea hederacea (IPOHE); experiment: B4 Pre-Emergence Efficacy—Test 1; conditions: pre-emergence application, 1000 g/ha, evaluated after 13 days
Procedure: as §3

[15] = tested on: Amaranthus retoflexus (AMARE); experiment: B4 Pre-Emergence Efficacy—Test 1; conditions: pre-emergence application, 1000 g/ha, evaluated after 13 days
Procedure: as §3

Solanum nigrum (SOLNI) [16] = experiment: B4 Pre-Emergence Efficacy—Test 1; conditions: pre-emergence application, 1000 g/ha, evaluated after 13 days
Procedure: as §3

[17] = tested on: Echinochloa crus-galli (ECHCG); experiment: B4 Pre-Emergence Efficacy—Test 1; conditions: pre-emergence application, 1000 g/ha, evaluated after 13 days
Procedure: as §3

Lolium perenne (LOLPE) [18] = experiment: B4 Pre-Emergence Efficacy—Test 1; conditions: pre-emergence application, 1000 g/ha, evaluated after 13 days
Procedure: as §3

Setaria faberi (SETFA) [19] = experiment: B2 Post-Emergence Efficacy—Test 2; conditions: post-emergence application, 250 g/ha, evaluated after 13 days (Test 2)
How it was run: (§4)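 Damage scores (five-point scale, 5=80-100%, 4=60-79%, 3=40-59%, 2=20-39%, 1=0-19%) reflect percentage injury 13 days after treatment. Plants received 250 g/ha as a post-emergence spray at 8 days after sowing.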

[20] = tested on: Ipomoea hederacea (IPOHE); experiment: B2 Post-Emergence Efficacy—Test 2; conditions: post-emergence application, 250 g/ha, evaluated after 13 days (Test 2)
How it was run: as §4

[21] = tested on: Amaranthus retoflexus (AMARE); experiment: B2 Post-Emergence Efficacy—Test 2; conditions: post-emergence application, 250 g/ha, evaluated after 13 days (Test 2)
How it was run: as §4

Solanum nigrum (SOLNI) [22] = experiment: B2 Post-Emergence Efficacy—Test 2; conditions: post-emergence application, 250 g/ha, evaluated after 13 days (Test 2)
How it was run: as §4

[23] = tested on: Echinochloa crus-galli (ECHCG); experiment: B2 Post-Emergence Efficacy—Test 2; conditions: post-emergence application, 250 g/ha, evaluated after 13 days (Test 2)
How it was run: as §4

Lolium perenne (LOLPE) [24] = experiment: B2 Post-Emergence Efficacy—Test 2; conditions: post-emergence application, 250 g/ha, evaluated after 13 days (Test 2)
How it was run: as §4

Cc1nn(C)c(=O)c(-c2c(F)ccc(Cl)c2CCc2ccc(C#N)cc2)c1O [Compound A-1.036, 4-[2-[6-chloro-3-fluoro-2-(5-hydroxy-2,6-dimethyl-3-oxo-pyridazin-4-yl)phenyl]ethyl]benzonitrile]
5 (5=80-100%): Control of weed species after pre-emergence application, AMARE (percentage damage, five point scale) [1] | Control of weed species after pre-emergence application, SOLNI (percentage damage, five point scale) (Solanum nigrum (SOLNI) [2]) | percentage damage caused to the plant, five point scale, SETFA (Setaria faberi (SETFA) [3]) | percentage damage caused to the plant, five point scale, IPOHE [4] | percentage damage caused to the plant, five point scale, AMARE [5] | percentage damage caused to the plant, five point scale, SOLNI (Solanum nigrum (SOLNI) [6]) | percentage damage caused to the plant, five point scale, ECHCG [7] | percentage damage caused to the plant, five point scale, LOLPE (Lolium perenne (LOLPE) [8]) | Control of weed species after pre-emergence application, SETFA (percentage damage, five point scale) (Setaria faberi (SETFA) [9]) | Control of weed species after pre-emergence application, IPOHE (percentage damage, five point scale) [10] | Control of weed species after pre-emergence application, ECHCG (percentage damage, five point scale) [11] | Control of weed species after pre-emergence application, LOLPE (percentage damage, five point scale) (Lolium perenne (LOLPE) [12]) | percentage damage caused to the plant, five point scale, SETFA (Setaria faberi (SETFA) [13]) | percentage damage caused to the plant, five point scale, IPOHE [14] | percentage damage caused to the plant, five point scale, AMARE [15] | percentage damage caused to the plant, five point scale, SOLNI (Solanum nigrum (SOLNI) [16]) | percentage damage caused to the plant, five point scale, ECHCG [17] | percentage damage caused to the plant, five point scale, LOLPE (Lolium perenne (LOLPE) [18]) | percentage damage caused to the plant, five point scale, SETFA (Setaria faberi (SETFA) [19]) | percentage damage caused to the plant, five point scale, IPOHE [20] | percentage damage caused to the plant, five point scale, AMARE [21] | percentage damage caused to the plant, five point scale, SOLNI (Solanum nigrum (SOLNI) [22]) | percentage damage caused to the plant, five point scale, ECHCG [23] | percentage damage caused to the plant, five point scale, LOLPE (Lolium perenne (LOLPE) [24])
